Experimental data: patent US12570642B2, “GLP-IR modulating compounds” (Gilead Sciences, Inc., priority 2021, dated 2026)

Molecular target: GLP-1R (Homo sapiens, UniProt P43220)
Test: GLP-1R Activation - cAMP Assay
Type: cell-based
Conditions: cAMP increase in CHO cells stably expressing GLP-1R; each compound run on one of the two cAMP assays (Assay 1 or Assay 2, not specified)
How it was run: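 cAMP rise read by HTRF after 30 min agonist exposure (10-point titration, 37 °C) in HBSS/20 mM Hepes/0.1% BSA, following 1 h pre-incubation. Cells: stable GLP-1R CHO line, 1,000/well, seeded overnight. Sigmoidal fit of response vs log concentration gives EC50.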

GLP-1R, sequence (P43220 24-463): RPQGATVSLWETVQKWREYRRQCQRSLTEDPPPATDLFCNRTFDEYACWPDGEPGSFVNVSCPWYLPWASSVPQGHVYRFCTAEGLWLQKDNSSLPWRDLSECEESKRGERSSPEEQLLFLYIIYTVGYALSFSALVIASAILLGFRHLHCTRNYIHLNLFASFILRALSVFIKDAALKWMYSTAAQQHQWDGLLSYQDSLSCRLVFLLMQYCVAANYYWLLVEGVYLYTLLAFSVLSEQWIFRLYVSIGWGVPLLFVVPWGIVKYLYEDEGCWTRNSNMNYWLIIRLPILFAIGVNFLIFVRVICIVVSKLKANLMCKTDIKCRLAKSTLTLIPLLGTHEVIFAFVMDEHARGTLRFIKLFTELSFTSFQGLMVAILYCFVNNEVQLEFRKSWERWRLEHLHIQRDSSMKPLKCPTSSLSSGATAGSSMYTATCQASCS

| SMILES | EC50 [nM] |
| --- | --- |
| CC1(C)COC[C@H]1n1c(Cc2cc(F)c(-c3cccc(OCc4ccccc4)n3)cc2F)nc2ccc(C(=O)O)cc21 [Example 363, (S)-2-(4-(6-(benzyloxy)pyridin-2-yl)-2,5-difluorobenzyl)-1-(4,4-dimethyltetrahydrofuran-3-yl)-1H-benzo[d]imidazole-6-carboxylic acid] | 0.369 |
| COCCn1c(Cc2cc(F)c(-c3ccc(F)c(OCc4ccc(C#N)cc4)n3)cc2F)nc2ccc(C(=O)O)c(F)c21 [Example 366, 2-(4-(6-((4-cyanobenzyl)oxy)-5-fluoropyridin-2-yl)-2,5-difluorobenzyl)-7-fluoro-1-(2-methoxyethyl)-1H-benzo[d]imidazole-6-carboxylic acid] | 1.17 |
| CC1(C)COC[C@H]1n1c(Cc2cc(F)c(-c3cccc(OCc4ccc(Cl)cc4)n3)cc2F)nc2c(F)cc(C(=O)O)cc21 [Example 367, (S)-2-(4-(6-((4-chlorobenzyl)oxy)pyridin-2-yl)-2,5-difluorobenzyl)-1-(4,4-dimethyltetrahydrofuran-3-yl)-4-fluoro-1H-benzo[d]imidazole-6-carboxylic acid] | 0.274 |
| CO[C@H](C)Cn1c(Cc2cc(F)c(-c3ccc(F)c(OCc4ccc(C#N)cc4F)n3)cc2F)nc2c(F)cc(C(=O)O)cc21 [Example 368, (R)-2-(4-(6-((4-cyano-2-fluorobenzyl)oxy)-5-fluoropyridin-2-yl)-2,5-difluorobenzyl)-4-fluoro-1-(2-methoxypropyl)-1H-benzo[d]imidazole-6-carboxylic acid] | 0.562 |
| CC1(C)COC[C@H]1n1c(Cc2ccc(-c3ccc(F)c(OCc4ccc(C#N)cc4F)n3)c(F)c2)nc2ccc(C(=O)O)cc21 [Example 369, (S)-2-(4-(6-((4-cyano-2-fluorobenzyl)oxy)-5-fluoropyridin-2-yl)-3-fluorobenzyl)-1-(4,4-dimethyltetrahydrofuran-3-yl)-1H-benzo[d]imidazole-6-carboxylic acid] | 0.364 |
| CC1(C)COC[C@H]1n1c(Cc2ccc(-c3cccc(OCc4ccc(C#N)cc4)n3)cc2F)nc2c(F)cc(C(=O)O)cc21 [Example 372, (S)-2-(4-(6-((4-cyanobenzyl)oxy)pyridin-2-yl)-2-fluorobenzyl)-1-(4,4-dimethyltetrahydrofuran-3-yl)-4-fluoro-1H-benzo[d]imidazole-6-carboxylic acid] | 0.163 |

These reach a lower EC50. Values come first.

| EC50 [nM] | SMILES |
| --- | --- |
| 0.158 | CC1(C)COC[C@H]1n1c(Cc2ccc(-c3nc(OCc4ccc(C#N)cc4F)ccc3F)cc2F)nc2ccc(C(=O)O)cc21 [Example 364, (S)-2-(4-(6-((4-cyano-2-fluorobenzyl)oxy)-3-fluoropyridin-2-yl)-2-fluorobenzyl)-1-(4,4-dimethyltetrahydrofuran-3-yl)-1H-benzo[d]imidazole-6-carboxylic acid] |
| 0.124 | CC1(C)COC[C@H]1n1c(Cc2cc(F)c(-c3nc(OCc4ccc(C#N)cc4F)ccc3F)cc2F)nc2c(F)cc(C(=O)O)cc21 [Example 365, (S)-2-(4-(6-((4-cyano-2-fluorobenzyl)oxy)-3-fluoropyridin-2-yl)-2,5-difluorobenzyl)-1-(4,4-dimethyltetrahydrofuran-3-yl)-4-fluoro-1H-benzo[d]imidazole-6-carboxylic acid] |
| 0.042 | CC1(C)COC[C@H]1n1c(Cc2ccc(-c3ccc(F)c(OCc4ccc(C#N)cc4)n3)cc2F)nc2ccc(C(=O)O)cc21 [Example 370, (S)-2-(4-(6-((4-cyanobenzyl)oxy)-5-fluoropyridin-2-yl)-2-fluorobenzyl)-1-(4,4-dimethyltetrahydrofuran-3-yl)-1H-benzo[d]imidazole-6-carboxylic acid] |
| 0.127 | CC1(C)COC[C@H]1n1c(Cc2ccc(-c3cccc(OCc4ccc(Cl)cc4)n3)cc2F)nc2ccc(C(=O)O)cc21 [Example 371, (S)-2-(4-(6-((4-chlorobenzyl)oxy)pyridin-2-yl)-2-fluorobenzyl)-1-(4,4-dimethyltetrahydrofuran-3-yl)-1H-benzo[d]imidazole-6-carboxylic acid] |
